“Also recorded” adds a separate entry of the source.
Assays:
HeLa cells = test: Cytoprotection from tunicamycin ER stress (WST-8 cell viability); type: cell-based, human; conditions: Tunicamycin 2.5 ug/ml, 0.2-5 μM compound
Protocol: Cells were plated in 24-well plates at a density of 15,000 (HeLa) or 12,000 cells/ml (MEFs) 24 hours prior to treatment. ER stress was elicited by addition of fresh media containing 2.5 μg/ml tunicamycin (Sigma-Aldrich). Compounds of Example 1 were dissolved in DMSO and added as indicated. DMSO was used as a mock treatment. Cell viability was assessed by measuring the reduction of WST-8 [2-(2-methoxy-4-nitrophenyl)-3-(4-nitrophenyl)-5-(2,4-disulfophenyl)-2H-tetrazolium] into formazan using Cell viability Counting Kit-8 (Dojindo) according to the supplier's recommendation, 48 hours after tunicamycin treatment.
Cells where stressed with Tunicamycin (2.5 ug/ml) in the presence of 0.2-5 μM of a compound of Example 1. Cell viability was measured 3 days after treatment.
Cytoprotection against ER stress can be measured by a suitable assay. In this instance, cytoprotection was measured in HeLa cells in which ER stress was elicited by the addition of media containing tunicamycin, a drug that blocks N-glycosylation, thereby preventing protein folding and inducing the unfolded protein response. Cell viability was then detected in the presence and absence of a compound of Example 1 after a set period of time, by measuring the reduction of WST-8 into formazan using the standard cell viability kit Cell Viability Counting Kit-8 from Dojindo. […]

eIF2α phosphorylation = eIF2α phosphorylation during stress-recovery after DTT wash out; type: cell-based; conditions: 30 minute 1 mM DTT and wash out
Protocol: The inventors reasoned that a PPP1R15B inhibitor should prolong eIF2α phosphorylation following stress. To reveal this activity, it was crucial to search for conditions where PPP1R15A is not expressed, to avoid confounding effects. The inventors took advantage of the fast kinetic and reversibility of stress induction by DTT (Bertolotti et al., Nat. Cell. Biol., 2, 326-332, 2000; Jousse et al., 2003) and monitored eIF2α phosphorylation in cells following a 30 minute treatment with 1 mM DTT and a wash out. […] Thus, careful monitoring of the kinetic of eIF2α dephosphorylation in the early phase of a stress-recovery paradigm such as the one described here can be used to identify other PPP1R15B inhibitors.

[1] = system: eIF2α phosphorylation in MEFs; test: eIF2α phosphorylation in r15a mut/mut or r15b mut/mut MEFs (immunoblot); type: cell-based, mouse
Protocol: (§1) HeLa cells were maintained in Dulbecco's Modified Eagle's Media (DMEM) supplemented with penicillin, streptomycin, glutamine and 10% fetal bovine serum (FBS). Ppp1r15a −/− and Ppp1r15b −/− MEF cells were maintained in DMEM supplemented with penicillin, streptomycin, glutamine, 55 μM β-mercaptoethanol, 1X non-essential amino acids (Sigma) and 10% FBS.
Cells (90,000 cells/ml) were plated in a 24-well plate and treated as indicated. At the end of treatment cells were lysed in 150 μl Laemmli Buffer. Lysates were boiled at 95° C. for 5 minutes, sonicated and resolved on 4-12% Bolt Bis-Tris Plus Gels (Thermo Fisher Scientific). Proteins were transferred to the nitrocellulose membrane using the iBlot 2 system (Thermo Fisher Scientific) and analysed using the following antibodies: e-IF2α-P (44-728G, Thermo Fisher Scientific, 1:1000), e-IF2α (ab5369, Abcam, 1:1000), tubulin (T5168, Sigma-Aldrich, 1:4000), BiP (610978, BD Biosciences Pharmingen, 1:1000), ATF4 (sc-200, Santa Cruz Biotechnology, 1:500), Ppp1r15a (10449-1-AP, Proteintech, 1:1000) and Ppp1r15b (14634-1-AP, Proteintech, 1:1000). Proteins were visualized using ECL Prime (GE Healthcare).

MEFs = test: Translation rates by 35S-methionine labelling in r15a mut/mut or r15b mut/mut MEFs; type: cell-based, mouse
Protocol: as §1
Cells (90,000 cells/ml) were plated in 12-well plates, treated as indicated, labelled with 100 μCi/ml ^35S-methionine (Hartmann Analytic) for 10 minutes at 37° C., washed with ice-cold PBS and lysed in 120 μl Laemmli Buffer. Lysates were boiled at 95° C. for 5 minutes, sonicated and resolved on 4-12% Bolt Bis-Tris Plus Gels (Thermo Fisher Scientific). Gels were then stained with InstantBlue (Expedeon) and analyzed by phosphorimaging.

db/db mice = test: Blood glucose in obese db/db mice; type: in vivo, mouse; conditions: 1 mg/kg once a day for three weeks
Protocol: For treatment of a metabolic disorder, Db/db animals (n=5 per condition) were treated once a day with 1 mg/kg of compound of Example 1 for three weeks. Blood glucose levels were measured with a blood glucose meter (DSI) between 9 and 10 am. Data are mean +/− S.e.m.

R15A = test: SPR of recombinant R15A binding to immobilized bio-GBZ; parameters: species or system human; conditions: immobilized biotinylated GBZ
Protocol: B. SPR sensorgrams of R15A and R15B binding to bio-GBZ immobilized on the SPR sensor chip surface. R15A/B concentration=0.0244-12.5 μM.
Here we set out to develop a generalizable strategy to identify new selective phosphatase inhibitors. First, we expressed and purified R15A and R15 B (FIG. 12) and used surface plasmon resonance (SPR) to measure binding affinities of known R15A inhibitors to their targets. We tried to immobilized R15 on SPR chip but this method produced inconsistent results, probably because the natively unstructured proteins precipitate on the chip. We therefore used biotynilated guanabenz (GBZ) (7) that we immobilized on the chip and tested binding of the proteins on the immobilized compound (FIGS. 13A and 13B).
A Biacore T200 (GE Healthcare) system was used for all experiments and biotinylated GBZ (bio-GBZ) (Tsaylter 2011) or bio-PP1 was captured on a Sensor Chip SA (GE Healthcare). […]

affinity for recombinant R15A fragment relative to R15B (R15A) | Structure (SMILES) | protection of cells from tunicamycin stress (cell viability) (HeLa cells) | eIF2α phosphorylation following stress (eIF2α phosphorylation) | eIF2α phosphorylation upon inactivation of R15A ([1]; r15a mut/mut MEFs) | effect on eIF2α phosphorylation in r15b knock out cells ([1]; r15b mut/mut MEFs, 10 μM, listed as TST3) | translation attenuation upon inactivation of R15A (MEFs) | blood glucose (db/db mice)
– | [H]/N=C(\N)NN=Cc1cccc(Cl)c1Cl [Example 1, (E)-2-(2,3-dichlorobenzylidene)hydrazine-1-carboximidamide] | protects cells from cytotoxic ER stress | prolongs eIF2α phosphorylation | rendered persistent | activity is abolished | rendered persistent | ameliorate a metabolic disorder; also recorded: reduced the pathological high blood glucose
ten times higher affinity | N=C(N)N/N=C/c1c(Cl)cccc1Cl [Guanabenz, reference compound] | – | – | – | – | – | –
